This is an account of results in patent US20260364030A1, “NOVEL SELECTIVE INHIBITORS OF LYSYL OXIDASES” (Syntara Limited, priority 2022, published 2026).

Data set [1] deals with T1, LOXL1 (Homo sapiens, UniProt Q08397).
T1 sequence (Q08397 96-574): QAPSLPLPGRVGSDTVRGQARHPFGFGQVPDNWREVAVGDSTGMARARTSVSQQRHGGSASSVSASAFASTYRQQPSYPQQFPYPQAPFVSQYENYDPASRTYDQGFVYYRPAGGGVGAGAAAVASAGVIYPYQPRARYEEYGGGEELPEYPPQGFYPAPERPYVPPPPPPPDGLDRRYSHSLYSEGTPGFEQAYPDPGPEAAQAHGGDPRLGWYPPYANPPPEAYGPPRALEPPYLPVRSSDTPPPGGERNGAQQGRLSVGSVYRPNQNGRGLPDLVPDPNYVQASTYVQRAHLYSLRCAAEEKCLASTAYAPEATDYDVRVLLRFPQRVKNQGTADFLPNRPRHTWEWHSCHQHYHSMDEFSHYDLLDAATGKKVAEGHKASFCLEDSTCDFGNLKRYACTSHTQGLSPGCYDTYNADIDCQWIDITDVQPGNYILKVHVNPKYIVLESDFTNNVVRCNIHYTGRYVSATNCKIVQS
As to the kind of experiment: Time-dependent inhibition of LOXL1, Amplex Red oxidation assay. Conditions: for IC50: 37 °C. In kind it is biochemical. The method, then: (§1) The time dependent inhibitory effects of the Compound 1 of the present invention were tested against the given LOXL1 preparation and LOXL2 preparation using a method based on the detection of hydrogen peroxide with an Amplex Red oxidation assay [Zhou et al. 1997]. The assay was developed for use in either 384 or 96 well format. Briefly, in a standard black, clear bottom 384 well plate assay 25 µL of a dilution of any of the isoenzymes and orthologues in 1.2 M urea, 50 mM sodium borate buffer (pH 8.2) were added into each well in the presence of […] and 0.5 mM pargyline (to inhibit SSAO and MAO-B and MAO-A, respectively; not necessary if the enzyme is from a recombinant or purified form). Test compound (Compound 1) was dissolved in DMSO and tested in a Concentration Response Curve (CRC) with 11 data points, typically in the micromolar or nanomolar range after incubation with the enzyme for different time points at 37 °C. 25 μL of a reaction mixture containing twice the KM concentration of putrescine (Sigma Aldrich, e.g. 20 mM for LOXL1 or 10 mM for LOXL2), 120 µM Amplex Red (Thermo Fisher Scientific) and 1.5 U/mL horseradish peroxidase (Sigma Aldrich) prepared in 1.2 M urea, 50 mM sodium borate buffer (pH 8.2) were then added to the corresponding wells. The fluorescence (RFU) was read every 2.5 min for 30 min at 37 °C, excitation 544 nm and emission 590 nm (Optima; BMG labtech). The slope/min of the kinetics for each well was calculated using MARS data analysis software (BMG labtech) and this value was used to deduce the IC50 value (Dotmatics).

In data set [2] the target is T2, Human MAO-A (Homo sapiens, UniProt P21397).
T2 construct: purchased Sigma Aldrich
The experiment in a line: Inhibition of human recombinant MAO-A. In kind it is biochemical. Conditions: 2 hours incubation; substrate tyramine 200 μM.

Data set [3] addresses T3, LOXL2 (Homo sapiens, UniProt Q9Y4K0).
T3 sequence (Q9Y4K0 26-774): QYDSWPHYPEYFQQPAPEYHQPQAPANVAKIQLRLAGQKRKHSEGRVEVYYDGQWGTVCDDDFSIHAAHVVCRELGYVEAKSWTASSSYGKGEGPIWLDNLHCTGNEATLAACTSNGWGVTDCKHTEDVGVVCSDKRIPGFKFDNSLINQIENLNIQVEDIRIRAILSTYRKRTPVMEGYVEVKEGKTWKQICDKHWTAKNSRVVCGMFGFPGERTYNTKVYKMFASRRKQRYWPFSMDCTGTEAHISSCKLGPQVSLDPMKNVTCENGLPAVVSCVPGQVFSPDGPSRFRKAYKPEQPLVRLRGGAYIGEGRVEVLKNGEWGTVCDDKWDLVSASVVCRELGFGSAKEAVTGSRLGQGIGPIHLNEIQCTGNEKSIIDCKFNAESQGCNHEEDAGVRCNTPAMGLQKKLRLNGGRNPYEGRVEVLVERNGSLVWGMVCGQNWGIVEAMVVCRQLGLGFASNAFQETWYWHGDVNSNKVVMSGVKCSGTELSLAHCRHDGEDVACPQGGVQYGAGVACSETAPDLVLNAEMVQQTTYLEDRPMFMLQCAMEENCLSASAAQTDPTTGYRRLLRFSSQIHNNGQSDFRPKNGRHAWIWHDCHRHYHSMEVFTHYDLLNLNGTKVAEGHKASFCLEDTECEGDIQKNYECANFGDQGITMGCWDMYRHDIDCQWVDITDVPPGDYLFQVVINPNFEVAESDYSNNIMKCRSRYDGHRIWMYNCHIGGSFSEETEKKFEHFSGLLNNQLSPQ
The experiment in a line: Time-dependent inhibition of LOXL2, Amplex Red oxidation assay. In kind it is biochemical. Particulars: for IC50: 37 °C. The method, then: as §1

The nature of data set [4]: Solubility and stability of test item in DMSO vehicle. In kind it is physicochemical. Particulars: for Stability in vehicle DMSO: at 20 μg/mL and 50000 μg/mL. Here is the method:
The test item was soluble in DMSO at 50 mg/mL and was used as the vehicle of choice in the mutation assay.

Data set [5] has as its system massive, pedunculated keloids. Conditions: BAPN or penicillamine, and colchicine; following excision of keloid and grafting; cited from earlier work.
The mark [6] stands for this setting: apparent potency increasing with time.

T2 sequence (P21397 whole entry): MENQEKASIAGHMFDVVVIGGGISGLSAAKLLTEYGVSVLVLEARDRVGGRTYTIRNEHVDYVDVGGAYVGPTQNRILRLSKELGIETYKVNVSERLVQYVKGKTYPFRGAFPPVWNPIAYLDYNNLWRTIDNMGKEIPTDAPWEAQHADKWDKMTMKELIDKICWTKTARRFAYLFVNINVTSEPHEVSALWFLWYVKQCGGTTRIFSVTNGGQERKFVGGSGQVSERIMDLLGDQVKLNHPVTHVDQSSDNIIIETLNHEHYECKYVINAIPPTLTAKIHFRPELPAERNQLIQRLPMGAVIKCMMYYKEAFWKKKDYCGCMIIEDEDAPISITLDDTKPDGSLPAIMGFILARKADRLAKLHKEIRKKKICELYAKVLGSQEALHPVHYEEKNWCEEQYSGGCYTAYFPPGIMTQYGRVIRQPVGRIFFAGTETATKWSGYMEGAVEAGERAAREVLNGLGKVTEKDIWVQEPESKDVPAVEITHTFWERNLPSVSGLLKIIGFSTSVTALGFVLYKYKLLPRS

The IC50 is the concentration at which inhibition is half-maximal. As usually defined, the solubility is how much of the substance goes into solution per volume. Consider `NC/C(=C\F)CS(=O)(=O)c1ccccc1` [Compound 1, (E)-3-fluoro-2-((phenylsulfonyl)methyl)prop-2-en-1-amine], for which the IC50 in data set [1] (30′ incubation) was 9.47 µM; in data set [1] (2 h incubation) it was 1.7 µM; in data set [1] (4 h incubation) it was 0.92 µM; in data set [2], greater than 100 µM; in data set [3] (0′ incubation), 14.7 µM; in data set [3] (15′ incubation), 5.58 µM. Also, the IC50 in data set [3] (30′ incubation) is 1.71 µM; in data set [3] (1 h incubation), 0.89 µM; in data set [3] (2 h incubation), 0.41 µM; in data set [3] (4 h incubation), 0.31 µM. In data set [1] (setting [6]), the “Time dependent LOXL1 inhibition” value was “time dependent LOXL1 and LOXL2 inhibition”. Further, the “Time dependent LOXL2 inhibition” value in data set [3] (setting [6]) was “time dependent LOXL1 and LOXL2 inhibition”. For the same molecule, the solubility in data set [4] (dmso, organic solvent or mixture) was no less than 50 mg/mL. The “Stability in vehicle DMSO” value in data set [4] (refrigerated temperature) was no less than 4 days; in data set [4] (room temperature) it was no less than 0.25 days.

In the case of `N#CCCN` [BAPN, β-aminopropionitrile, reference compound], the “Effect on surface scarring” value in data set [5] was “measurable beneficial effect on surface scarring”.
